#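 Step 1: Grow cells in 96-well plates. Step 2: Expose to compound for 48 hours at 5 concentrations. Step 3: Interpolate endpoints linearly; if unreached, use highest concentration. Abbreviation: GI50, concentration required for 50% inhibition of growth. TGI marks complete inhibition of growth.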
# How the values were obtained:
# Test in all cases: NCI tumour cell line growth inhibition, 48 h
# SF-539 CNS = tested on: SF-539 CNS
# SK-MEL-5 melanoma = tested on: SK-MEL-5 melanoma
# MCF7 breast = tested on: MCF7 breast
# HT29 colon = tested on: HT29 colon
# NCI-H23 lung = tested on: NCI-H23 lung
# NCI-H522 lung = tested on: NCI-H522 lung
# KM12 colon = tested on: KM12 colon
# NCI-H226 lung = tested on: NCI-H226 lung
# COLO 205 colon = tested on: COLO 205 colon
# RXF 393 renal = tested on: RXF 393 renal
# UACC-257 melanoma = tested on: UACC-257 melanoma
# HOP-92 NSCLC = tested on: HOP-92 NSCLC
# SK-MEL-28 melanoma = tested on: SK-MEL-28 melanoma
# U251 CNS = tested on: U251 CNS
# MALME-3M melanoma = tested on: MALME-3M melanoma
# OVCAR-4 ovarian = tested on: OVCAR-4 ovarian
# CCRF-CEM leukemia = tested on: CCRF-CEM leukemia
# CAKI-1 renal = tested on: CAKI-1 renal
# SF-295 CNS = tested on: SF-295 CNS
# K-562 leukemia = tested on: K-562 leukemia
# TK-10 renal = tested on: TK-10 renal
# UACC-62 melanoma = tested on: UACC-62 melanoma
# T-47D breast = tested on: T-47D breast
# SNB-75 CNS = tested on: SNB-75 CNS
# HCT-15 colon = tested on: HCT-15 colon
# OVCAR-5 ovarian = tested on: OVCAR-5 ovarian
# SW-620 colon = tested on: SW-620 colon
# SK-MEL-2 melanoma = tested on: SK-MEL-2 melanoma
# M14 melanoma = tested on: M14 melanoma
# HCC-2998 colon = tested on: HCC-2998 colon
# A549 NSCLC = tested on: A549 NSCLC
# DU-145 prostate = tested on: DU-145 prostate
# MDA-MB-435 = tested on: MDA-MB-435
# MOLT-4 leukemia = tested on: MOLT-4 leukemia
# HS 578T breast = tested on: HS 578T breast
# SK-OV-3 ovarian = tested on: SK-OV-3 ovarian
# A498 renal = tested on: A498 renal
# SR leukemia = tested on: SR leukemia
# OVCAR-8 ovarian = tested on: OVCAR-8 ovarian
# SNB-19 CNS = tested on: SNB-19 CNS
# PC-3 prostate = tested on: PC-3 prostate
# IGROV1 ovarian = tested on: IGROV1 ovarian
# 786-0 renal = tested on: 786-0 renal
# SF-268 CNS = tested on: SF-268 CNS
# HOP-62 NSCLC = tested on: HOP-62 NSCLC
# NCI/ADR-RES ovarian = tested on: NCI/ADR-RES ovarian
# UO-31 renal = tested on: UO-31 renal
# LOX IMVI melanoma = tested on: LOX IMVI melanoma
# HCT-116 colon = tested on: HCT-116 colon
# RPMI-8226 leukemia = tested on: RPMI-8226 leukemia
# MDA-MB-231 breast = tested on: MDA-MB-231 breast
# EKVX NSCLC = tested on: EKVX NSCLC
# OVCAR-3 ovarian = tested on: OVCAR-3 ovarian
# BT-549 breast = tested on: BT-549 breast
# SN12C renal = tested on: SN12C renal
# NCI-H460 lung = tested on: NCI-H460 lung
# ACHN renal = tested on: ACHN renal
# HL-60(TB) leukemia = tested on: HL-60(TB) leukemia
structure (smiles),measurement,setting,value
Cc1nc(Nc2cccnc2)sc1C(=O)/C=C/c1ccc(Cl)cc1,GI50,SF-539 CNS,2.03 µM
same,TGI,SF-539 CNS,5.26 µM
same,GI50,SK-MEL-5 melanoma,4.59 µM
same,TGI,SK-MEL-5 melanoma,35.5 µM
same,GI50,MCF7 breast,1.92 µM
same,TGI,MCF7 breast,10.7 µM
same,GI50,HT29 colon,2.85 µM
same,TGI,HT29 colon,9.43 µM
same,GI50,NCI-H23 lung,3.43 µM
same,TGI,NCI-H23 lung,40.8 µM
same,GI50,NCI-H522 lung,2.14 µM
same,TGI,NCI-H522 lung,5.33 µM
same,GI50,KM12 colon,1.98 µM
same,TGI,KM12 colon,4.19 µM
same,GI50,NCI-H226 lung,2.75 µM
same,TGI,NCI-H226 lung,8.12 µM
same,GI50,COLO 205 colon,2.53 µM
same,TGI,COLO 205 colon,6.47 µM
same,GI50,RXF 393 renal,2.43 µM
same,TGI,RXF 393 renal,5.46 µM
same,GI50,UACC-257 melanoma,9.22 µM
same,TGI,UACC-257 melanoma,> 100 µM
same,GI50,HOP-92 NSCLC,3.23 µM
same,TGI,HOP-92 NSCLC,15.2 µM
same,GI50,SK-MEL-28 melanoma,3.04 µM
same,TGI,SK-MEL-28 melanoma,14.7 µM
same,GI50,U251 CNS,1.81 µM
same,TGI,U251 CNS,3.72 µM
same,GI50,MALME-3M melanoma,3.3 µM
same,TGI,MALME-3M melanoma,23.6 µM
same,GI50,OVCAR-4 ovarian,5.14 µM
same,TGI,OVCAR-4 ovarian,> 100 µM
same,GI50,CCRF-CEM leukemia,3.31 µM
same,TGI,CCRF-CEM leukemia,> 100 µM
same,GI50,CAKI-1 renal,3.15 µM
same,TGI,CAKI-1 renal,15.1 µM
same,GI50,SF-295 CNS,2.79 µM
same,TGI,SF-295 CNS,19.1 µM
same,GI50,K-562 leukemia,2.62 µM
same,TGI,K-562 leukemia,> 100 µM
same,GI50,TK-10 renal,3.53 µM
same,TGI,TK-10 renal,12.1 µM
same,GI50,UACC-62 melanoma,2.32 µM
same,TGI,UACC-62 melanoma,5.84 µM
same,GI50,T-47D breast,2.57 µM
same,TGI,T-47D breast,29.4 µM
same,GI50,SNB-75 CNS,2.82 µM
same,TGI,SNB-75 CNS,14.7 µM
same,GI50,HCT-15 colon,1.59 µM
same,TGI,HCT-15 colon,4.03 µM
same,GI50,OVCAR-5 ovarian,2.87 µM
same,TGI,OVCAR-5 ovarian,31.2 µM
same,GI50,SW-620 colon,2.08 µM
same,TGI,SW-620 colon,4.75 µM
same,GI50,SK-MEL-2 melanoma,3.97 µM
same,TGI,SK-MEL-2 melanoma,18.3 µM
same,GI50,M14 melanoma,3.13 µM
same,TGI,M14 melanoma,19.5 µM
same,GI50,HCC-2998 colon,3.06 µM
same,TGI,HCC-2998 colon,10.5 µM
same,GI50,A549 NSCLC,3.32 µM
same,TGI,A549 NSCLC,> 100 µM
same,GI50,DU-145 prostate,3.57 µM
same,TGI,DU-145 prostate,19.8 µM
same,GI50,MDA-MB-435,2.26 µM
same,TGI,MDA-MB-435,6.46 µM
same,GI50,MOLT-4 leukemia,3.49 µM
same,TGI,MOLT-4 leukemia,> 100 µM
same,GI50,HS 578T breast,4.11 µM
same,TGI,HS 578T breast,> 100 µM
same,GI50,SK-OV-3 ovarian,3.88 µM
same,TGI,SK-OV-3 ovarian,> 100 µM
same,GI50,A498 renal,49.5 µM
same,TGI,A498 renal,> 100 µM
same,GI50,SR leukemia,2.3 µM
same,TGI,SR leukemia,> 100 µM
same,GI50,OVCAR-8 ovarian,3.84 µM
same,TGI,OVCAR-8 ovarian,> 100 µM
same,GI50,SNB-19 CNS,2.31 µM
same,TGI,SNB-19 CNS,5.99 µM
same,GI50,PC-3 prostate,3.27 µM
same,TGI,PC-3 prostate,12 µM
same,GI50,IGROV1 ovarian,3.29 µM
same,TGI,IGROV1 ovarian,> 100 µM
same,GI50,786-0 renal,1.95 µM
same,TGI,786-0 renal,6.48 µM
same,GI50,SF-268 CNS,4.34 µM
same,TGI,SF-268 CNS,> 100 µM
same,GI50,HOP-62 NSCLC,2.56 µM
same,TGI,HOP-62 NSCLC,7.6 µM
same,GI50,NCI/ADR-RES ovarian,3.03 µM
same,TGI,NCI/ADR-RES ovarian,11.1 µM
same,GI50,UO-31 renal,1.81 µM
same,TGI,UO-31 renal,4.61 µM
same,GI50,LOX IMVI melanoma,1.83 µM
same,TGI,LOX IMVI melanoma,3.75 µM
same,GI50,HCT-116 colon,1.85 µM
same,TGI,HCT-116 colon,5.03 µM
same,GI50,RPMI-8226 leukemia,2.5 µM
same,TGI,RPMI-8226 leukemia,9.03 µM
same,GI50,MDA-MB-231 breast,4.7 µM
same,TGI,MDA-MB-231 breast,> 100 µM
same,GI50,EKVX NSCLC,6.99 µM
same,TGI,EKVX NSCLC,> 100 µM
same,GI50,OVCAR-3 ovarian,3.27 µM
same,TGI,OVCAR-3 ovarian,16.2 µM
same,GI50,BT-549 breast,2.2 µM
same,TGI,BT-549 breast,7.22 µM
same,GI50,SN12C renal,2.91 µM
same,TGI,SN12C renal,9.13 µM
same,GI50,NCI-H460 lung,3.5 µM
same,TGI,NCI-H460 lung,13.8 µM
CCOc1c(N=Nc2ccccc2Cl)c(-c2ccccc2)nn1C(=S)S,TGI,SF-539 CNS,50.4 µM
same,TGI,SK-MEL-5 melanoma,57.9 µM
same,TGI,MCF7 breast,> 100 µM
same,TGI,HT29 colon,> 100 µM
same,TGI,NCI-H23 lung,> 100 µM
same,TGI,NCI-H522 lung,89.9 µM
same,TGI,KM12 colon,> 100 µM
same,TGI,NCI-H226 lung,93.8 µM
same,TGI,COLO 205 colon,47.5 µM
same,TGI,ACHN renal,> 100 µM
same,TGI,RXF 393 renal,> 100 µM
same,TGI,UACC-257 melanoma,> 100 µM
same,TGI,HOP-92 NSCLC,> 100 µM
same,TGI,SK-MEL-28 melanoma,> 100 µM
same,TGI,U251 CNS,> 100 µM
same,TGI,MALME-3M melanoma,95.2 µM
same,TGI,OVCAR-4 ovarian,> 100 µM
same,TGI,CAKI-1 renal,70.3 µM
same,TGI,SF-295 CNS,> 100 µM
same,TGI,K-562 leukemia,> 100 µM
same,TGI,TK-10 renal,> 100 µM
same,TGI,UACC-62 melanoma,> 100 µM
same,TGI,T-47D breast,> 100 µM
same,TGI,SNB-75 CNS,> 100 µM
same,TGI,HCT-15 colon,> 100 µM
same,TGI,OVCAR-5 ovarian,> 100 µM
same,TGI,SW-620 colon,> 100 µM
same,TGI,SK-MEL-2 melanoma,> 100 µM
same,TGI,M14 melanoma,> 100 µM
same,TGI,A549 NSCLC,> 100 µM
same,TGI,DU-145 prostate,> 100 µM
same,TGI,MDA-MB-435,> 100 µM
same,TGI,MOLT-4 leukemia,58.2 µM
same,TGI,HS 578T breast,75.4 µM
same,TGI,SK-OV-3 ovarian,> 100 µM
same,TGI,SR leukemia,60 µM
same,TGI,OVCAR-8 ovarian,> 100 µM
same,TGI,SNB-19 CNS,> 100 µM
same,TGI,PC-3 prostate,> 100 µM
same,TGI,IGROV1 ovarian,> 100 µM
same,TGI,HL-60(TB) leukemia,> 100 µM
same,TGI,786-0 renal,> 100 µM
same,TGI,SF-268 CNS,> 100 µM
same,TGI,HOP-62 NSCLC,> 100 µM
same,TGI,NCI/ADR-RES ovarian,> 100 µM
same,TGI,UO-31 renal,> 100 µM
same,TGI,LOX IMVI melanoma,46.1 µM
same,TGI,HCT-116 colon,> 100 µM
same,TGI,MDA-MB-231 breast,56.5 µM
same,TGI,EKVX NSCLC,> 100 µM
same,TGI,OVCAR-3 ovarian,90.1 µM
same,TGI,BT-549 breast,> 100 µM
same,TGI,SN12C renal,34.8 µM
same,TGI,NCI-H460 lung,> 100 µM
